In patent US20100298141A1, “SUBSTITUTED PYRIDINE N-OXIDE HERBICIDES” (E. I. DU PONT DE NEMOURS AND COMPANY, priority 2007, published 2010):

Experiments:
Assay in all cases: Test F preemergence test
Settings in all cases: scale 0 to 100
[1] = system: pitted morningglory; type: in vivo, Ipomoea lacunosa
Excerpt: (§1) Seeds of plant species selected from bermudagrass (Cynodon dactylon), Surinam grass (Brachiaria decumbens), large crabgrass (Digitaria sanguinalis), green foxtail (Setaria viridis), goosegrass (Eleusine indica), johnsongrass (Sorghum halepense), kochia (Kochia scoparia), pitted morningglory (Ipomoea lacunosa), purple nutsedge (Cyperus rotundus), common ragweed (Ambrosia elation), mustard (Brassica nigra), guineagrass (Panicum maximum), […] (Paspalum dilatatum), barnyardgrass (Echinochloa crus-galli), southern sandbur (Cenchrus echinatus), common sowthistle (Sonchus oleraceous), prickly […] spinosa), Italian ryegrass (Lolium multiflorum), common purslane (Portulaca oleracea), broadleaf signalgrass (Brachiaria platyphylla), common groundsel (Senecio vulgaris), common chickweed (Stellaria media), Virginia dayflower (Commelina virginica), annual bluegrass (Poa annua), naked crabgrass (Digitaria nuda), […] cochinchinensis), quackgrass (Elytrigia repens), Canada horseweed (Conyza canadensis), field bindweed (Convolvulus arvensis), […] (Bidens bipinnata), common mallow (Malva sylvestris), Russian thistle (Salsola kali), and sugarcane (Saccharum officinarum) were planted and treated preemergence with test chemicals formulated in a non-phytotoxic solvent mixture which included a surfactant. At a different time, sugarcane was treated with postemergence applications of some of the test chemicals formulated in the same manner. Plants were approximately 3- to 4-leaf stage for the postemergence treatments. Treated plants and controls were maintained in a greenhouse for 14 to 21 days, after which time all species were compared to controls and visually evaluated. […] A dash (-) response means no test result.

[2] = system: common purslane; type: in vivo, Portulaca oleracea
How it was run: (§2)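 Greenhouse screen: test chemical in surfactant-containing non-phytotoxic solvent applied preemergence to sown seeds or postemergence to sugarcane plants; after 14 to 21 days each species scored visually versus controls.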

[3] = system: annual bluegrass; type: in vivo, Poa annua
How it was run: as §2

[4] = system: Virginia dayflower; type: in vivo, Commelina virginica
How it was run: as §2

[5] = system: field bindweed; type: in vivo, Convolvulus arvensis
How it was run: as §2

[6] = system: guineagrass; type: in vivo, Panicum maximum
How it was run: as §2

[7] = system: johnsongrass; type: in vivo, Sorghum halepense
How it was run: as §2

[8] = system: spanishneedles; type: in vivo, Bidens bipinnata
Excerpt: as §1

[9] = system: dallisgrass; type: in vivo, Paspalum dilatatum
How it was run: as §2

[10] = system: common mallow; type: in vivo, Malva sylvestris
Excerpt: as §1

[11] = system: naked crabgrass; type: in vivo, Digitaria nuda
How it was run: as §2

[12] = system: itchgrass; type: in vivo, Rottboellia cochinchinensis
How it was run: as §2

[13] = system: prickly sida; type: in vivo, Sida spinosa
How it was run: as §2

[14] = system: green foxtail; type: in vivo, Setaria viridis
How it was run: as §2

[15] = system: common groundsel; type: in vivo, Senecio vulgaris
How it was run: as §2

[16] = system: Canada horseweed; type: in vivo, Conyza canadensis
Excerpt: as §1

[17] = system: common sowthistle; type: in vivo, Sonchus oleraceous
Excerpt: as §1

Compound: Cn1nc(C(F)(F)F)c(CS(=O)(=O)c2cccc[n+]2[O-])c1OCC(F)(F)F [Compound 29]
- Morningglory plant response rating ([1]; 62 g ai/ha, Preemergence): 60
- Morningglory plant response rating ([1]; 125 g ai/ha, preemergence): 80
- Plant response rating, Morningglory ([1]; Preemergence, 16 g ai/ha): 0
- Plant response rating, Morningglory ([1]; Preemergence, 31 g ai/ha): 0
- Purslane plant response rating ([2]; 62 g ai/ha, Preemergence): 30
- Purslane plant response rating ([2]; 125 g ai/ha, preemergence): 30
- Plant response rating, Purslane ([2]; Preemergence, 16 g ai/ha): 0
- Plant response rating, Purslane ([2]; Preemergence, 31 g ai/ha): 0
- Bluegrass plant response rating ([3]; 62 g ai/ha, Preemergence): 98
- Bluegrass plant response rating ([3]; 125 g ai/ha, preemergence): 100
- Plant response rating, Bluegrass ([3]; Preemergence, 16 g ai/ha): 20
- Plant response rating, Bluegrass ([3]; Preemergence, 31 g ai/ha): 75
- Dayflower plant response rating ([4]; 62 g ai/ha, Preemergence): 100
- Dayflower plant response rating ([4]; 125 g ai/ha, preemergence): 100
- Plant response rating, Dayflower ([4]; Preemergence, 16 g ai/ha): 0
- Plant response rating, Dayflower ([4]; Preemergence, 31 g ai/ha): 95
- Field Bindweed plant response rating ([5]; 62 g ai/ha, Preemergence): 0
- Field Bindweed plant response rating ([5]; 125 g ai/ha, preemergence): 0
- Plant response rating, Field Bindweed ([5]; Preemergence, 16 g ai/ha): 0
- Plant response rating, Field Bindweed ([5]; Preemergence, 31 g ai/ha): 0
- Guineagrass plant response rating ([6]; 62 g ai/ha, Preemergence): 100
- Guineagrass plant response rating ([6]; 125 g ai/ha, preemergence): 100
- Plant response rating, Guineagrass ([6]; Preemergence, 16 g ai/ha): 90
- Plant response rating, Guineagrass ([6]; Preemergence, 31 g ai/ha): 100
- Johnsongrass plant response rating ([7]; 62 g ai/ha, Preemergence): 100
- Johnsongrass plant response rating ([7]; 125 g ai/ha, preemergence): 100
- Plant response rating, Johnsongrass ([7]; Preemergence, 16 g ai/ha): 70
- Plant response rating, Johnsongrass ([7]; Preemergence, 31 g ai/ha): 100
- Spanishneedles plant response rating ([8]; 62 g ai/ha, Preemergence): 0
- Spanishneedles plant response rating ([8]; 125 g ai/ha, preemergence): 25
- Plant response rating, Spanishneedles ([8]; Preemergence, 31 g ai/ha): 0
- Dallisgrass plant response rating ([9]; 62 g ai/ha, Preemergence): 100
- Dallisgrass plant response rating ([9]; 125 g ai/ha, preemergence): 100
- Plant response rating, Dallisgrass ([9]; Preemergence, 16 g ai/ha): 0
- Plant response rating, Dallisgrass ([9]; Preemergence, 31 g ai/ha): 100
- Mallow plant response rating ([10]; 62 g ai/ha, Preemergence): 100
- Mallow plant response rating ([10]; 125 g ai/ha, preemergence): 100
- Plant response rating, Mallow ([10]; Preemergence, 16 g ai/ha): 0
- Plant response rating, Mallow ([10]; Preemergence, 31 g ai/ha): 0
- Crabgrass, Naked plant response rating ([11]; 62 g ai/ha, Preemergence): 100
- Crabgrass, Naked plant response rating ([11]; 125 g ai/ha, preemergence): 100
- Plant response rating, Crabgrass, Naked ([11]; Preemergence, 31 g ai/ha): 80
- Itchgrass plant response rating ([12]; 62 g ai/ha, Preemergence): 75
- Itchgrass plant response rating ([12]; 125 g ai/ha, preemergence): 95
- Plant response rating, Itchgrass ([12]; Preemergence, 16 g ai/ha): 0
- Plant response rating, Itchgrass ([12]; Preemergence, 31 g ai/ha): 30
- Prickly Sida plant response rating ([13]; 62 g ai/ha, Preemergence): 95
- Prickly Sida plant response rating ([13]; 125 g ai/ha, preemergence): 100
- Plant response rating, Prickly Sida ([13]; Preemergence, 16 g ai/ha): 40
- Plant response rating, Prickly Sida ([13]; Preemergence, 31 g ai/ha): 95
- Foxtail, Green plant response rating ([14]; 62 g ai/ha, Preemergence): 100
- Foxtail, Green plant response rating ([14]; 125 g ai/ha, preemergence): 100
- Plant response rating, Foxtail, Green ([14]; Preemergence, 16 g ai/ha): 25
- Plant response rating, Foxtail, Green ([14]; Preemergence, 31 g ai/ha): 75

Compound: CC(Oc1c(C[S+]([O-])c2cccc[n+]2[O-])c(C(F)(F)F)nn1C)C(F)(F)F (stereo not drawn) [Compound 77]
- Plant response rating, Morningglory ([1]; 16 g ai/ha, preemergence): 0
- Morningglory plant response rating ([1]; 62 g ai/ha, Preemergence): 60
- Morningglory plant response rating ([1]; 125 g ai/ha, preemergence): 90
- Plant response rating, Morningglory ([1]; Preemergence, 31 g ai/ha): 35
- Plant response rating, Groundsel ([15]; 16 g ai/ha, preemergence): 0
- Groundsel plant response rating ([15]; 62 g ai/ha, Preemergence): 0
- Groundsel plant response rating ([15]; 125 g ai/ha, preemergence): 0
- Plant response rating, Groundsel ([15]; Preemergence, 31 g ai/ha): 0
- Plant response rating, Purslane ([2]; 16 g ai/ha, preemergence): 0
- Purslane plant response rating ([2]; 62 g ai/ha, Preemergence): 20
- Purslane plant response rating ([2]; 125 g ai/ha, preemergence): 65
- Plant response rating, Purslane ([2]; Preemergence, 31 g ai/ha): 0
- Plant response rating, Bluegrass ([3]; 16 g ai/ha, preemergence): 0
- Bluegrass plant response rating ([3]; 62 g ai/ha, Preemergence): 0
- Bluegrass plant response rating ([3]; 125 g ai/ha, preemergence): 75
- Plant response rating, Bluegrass ([3]; Preemergence, 31 g ai/ha): 0
- Plant response rating, Dayflower ([4]; 16 g ai/ha, preemergence): 0
- Dayflower plant response rating ([4]; 62 g ai/ha, Preemergence): 0
- Dayflower plant response rating ([4]; 125 g ai/ha, preemergence): 100
- Plant response rating, Dayflower ([4]; Preemergence, 31 g ai/ha): 0
- Plant response rating, Field Bindweed ([5]; 16 g ai/ha, preemergence): 0
- Field Bindweed plant response rating ([5]; 62 g ai/ha, Preemergence): 35
- Field Bindweed plant response rating ([5]; 125 g ai/ha, preemergence): 70
- Plant response rating, Field Bindweed ([5]; Preemergence, 31 g ai/ha): 0
- Plant response rating, Horseweed ([16]; 16 g ai/ha, preemergence): 0
- Horseweed plant response rating ([16]; 62 g ai/ha, Preemergence): 98
- Horseweed plant response rating ([16]; 125 g ai/ha, preemergence): 100
- Plant response rating, Horseweed ([16]; Preemergence, 31 g ai/ha): 50
- Plant response rating, Guineagrass ([6]; 16 g ai/ha, preemergence): 15
- Guineagrass plant response rating ([6]; 62 g ai/ha, Preemergence): 100
- Guineagrass plant response rating ([6]; 125 g ai/ha, preemergence): 100
- Plant response rating, Guineagrass ([6]; Preemergence, 31 g ai/ha): 80
- Plant response rating, Johnsongrass ([7]; 16 g ai/ha, preemergence): 0
- Johnsongrass plant response rating ([7]; 62 g ai/ha, Preemergence): 85
- Johnsongrass plant response rating ([7]; 125 g ai/ha, preemergence): 100
- Plant response rating, Johnsongrass ([7]; Preemergence, 31 g ai/ha): 75
- Plant response rating, Dallisgrass ([9]; 16 g ai/ha, preemergence): 0
- Dallisgrass plant response rating ([9]; 62 g ai/ha, Preemergence): 98
- Dallisgrass plant response rating ([9]; 125 g ai/ha, preemergence): 100
- Plant response rating, Dallisgrass ([9]; Preemergence, 31 g ai/ha): 30
- Plant response rating, Mallow ([10]; 16 g ai/ha, preemergence): 65
- Mallow plant response rating ([10]; 62 g ai/ha, Preemergence): 90
- Mallow plant response rating ([10]; 125 g ai/ha, preemergence): 100
- Plant response rating, Mallow ([10]; Preemergence, 31 g ai/ha): 90
- Plant response rating, Crabgrass, Naked ([11]; 16 g ai/ha, preemergence): 0
- Crabgrass, Naked plant response rating ([11]; 62 g ai/ha, Preemergence): 90
- Crabgrass, Naked plant response rating ([11]; 125 g ai/ha, preemergence): 100
- Plant response rating, Crabgrass, Naked ([11]; Preemergence, 31 g ai/ha): 75
- Plant response rating, Sowthistle ([17]; 16 g ai/ha, preemergence): 0
- Sowthistle plant response rating ([17]; 125 g ai/ha, preemergence): 50
- Plant response rating, Sowthistle ([17]; Preemergence, 31 g ai/ha): 0
- Plant response rating, Itchgrass ([12]; 16 g ai/ha, preemergence): 0
- Itchgrass plant response rating ([12]; 62 g ai/ha, Preemergence): 65
- Itchgrass plant response rating ([12]; 125 g ai/ha, preemergence): 95
- Plant response rating, Itchgrass ([12]; Preemergence, 31 g ai/ha): 35
- Plant response rating, Prickly Sida ([13]; 16 g ai/ha, preemergence): 20
- Prickly Sida plant response rating ([13]; 62 g ai/ha, Preemergence): 80
- Prickly Sida plant response rating ([13]; 125 g ai/ha, preemergence): 80
- Plant response rating, Prickly Sida ([13]; Preemergence, 31 g ai/ha): 30
- Plant response rating, Foxtail, Green ([14]; 16 g ai/ha, preemergence): 25
- Foxtail, Green plant response rating ([14]; 62 g ai/ha, Preemergence): 90
- Foxtail, Green plant response rating ([14]; 125 g ai/ha, preemergence): 100
- Plant response rating, Foxtail, Green ([14]; Preemergence, 31 g ai/ha): 65
